# From patent publication US12679843B2, “Pyrrolopyrimidine amines as complement inhibitors” (BioCryst Pharmaceuticals, Inc., priority 2020, dated 2026)
# Target: Factor D (Homo sapiens, UniProt P00746)
# Assay: Factor D esterolytic assay (Z-Lys-SBzl thioester substrate, DTNB, 405 nm)
# Assay type: biochemical
# Conditions: substrate Z-Lys-SBzl 1.29 mM, 100 mM HEPES, 500 mM NaCl, pH 7.5, 10% DMSO, tested a minimum of three times
# Summary of the method: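 Run in pH 7.5 HEPES (100 mM) with 500 mM NaCl and 10% DMSO, with compound preincubated at room temperature or not before adding 1.29 mM Z-Lys-SBzl. Free thiol released by Factor D reacts with DTNB, and rate is followed at 405 nm minus 690 nm over 600 s. IC50 derives from rate-based inhibition, minimum three replicates.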
# Chain of Factor D (P00746 26-253): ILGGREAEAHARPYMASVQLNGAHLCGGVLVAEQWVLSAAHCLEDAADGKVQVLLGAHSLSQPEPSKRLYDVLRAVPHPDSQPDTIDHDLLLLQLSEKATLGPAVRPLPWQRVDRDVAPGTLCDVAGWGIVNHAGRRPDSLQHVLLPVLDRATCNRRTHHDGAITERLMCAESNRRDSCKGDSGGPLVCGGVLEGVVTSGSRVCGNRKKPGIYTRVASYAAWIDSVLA
row,IC50 [nM],SMILES
1,< 100,"COc1cccc(-c2cc(C)c3c(c2)c2c(N)ncnc2n3CC(=O)N2[C@@H]3C[C@@H]3C[C@H]2C(=O)Nc2cccc(Br)n2)c1 [Compound 341c, (1R,3S,5R)-2-(2-(4-amino-6-(3-methoxyphenyl)-8-methyl-9H-pyrimido[4,5-b]indol-9-yl)acetyl)-N-(6-bromopyridin-2-yl)-2-azabicyclo[3.1.0]hexane-3-carboxamide]"
2,< 100,"COc1cccc(-c2cc(C)c3c(c2)c2c(N)ncnc2n3CC(=O)N2[C@H](C(=O)Nc3cccc(Br)n3)C[C@@]3(C)C[C@@H]23)c1 [Compound 342a, (1R,3S,5R)-2-(2-(4-amino-6-(3-methoxyphenyl)-8-methyl-9H-pyrimido[4,5-b]indol-9-yl)acetyl)-N-(6-bromopyridin-2-yl)-5-methyl-2-azabicyclo[3.1.0]hexane-3-carboxamide]"
3,< 100,"Cc1ncc(-c2cc(C)c3c(c2)c2c(N)ncnc2n3CC(=O)N2C[C@](C)(F)C[C@H]2C(=O)Nc2cccc(Cl)n2)cn1 [Compound 343a, (2S,4R)-1-(2-(4-amino-8-methyl-6-(2-methylpyrimidin-5-yl)-9H-pyrimido[4,5-b]indol-9-yl)acetyl)-N-(6-chloropyridin-2-yl)-4-fluoro-4-methylpyrrolidine-2-carboxamide]"
4,< 100,"COc1cc(Br)nc(NC(=O)[C@@H]2C[C@H]3C[C@H]3N2C(=O)Cn2c3ncnc(N)c3c3cc(C(F)(F)F)cc(C)c32)c1 [Compound 344c, (1R,3S,5R)-2-(2-(4-amino-8-methyl-6-(trifluoromethyl)-9H-pyrimido[4,5-b]indol-9-yl)acetyl)-N-(6-bromo-4-methoxypyridin-2-yl)-2-azabicyclo[3.1.0]hexane-3-carboxamide]"
5,< 100,"Cc1cc(C(F)(F)F)cc2c3c(N)ncnc3n(CC(=O)N3[C@@H]4C[C@@H]4C[C@H]3C(=O)Nc3cccc(OC(F)F)n3)c12 [Compound 345c, (1R,3S,5R)-2-(2-(4-amino-8-methyl-6-(trifluoromethyl)-9H-pyrimido[4,5-b]indol-9-yl)acetyl)-N-(6-(difluoromethoxy)pyridin-2-yl)-2-azabicyclo[3.1.0]hexane-3-carboxamide]"
6,< 100,"Cc1nc(C(F)(F)F)cc2c3c(N)ncnc3n(CC(=O)N3[C@@H]4C[C@@H]4C[C@H]3C(=O)Nc3cccc(Br)n3)c12 [Compound 346g, (1R,3S,5R)-2-(2-(4-amino-8-methyl-6-(trifluoromethyl)-9H-pyrido[4′,3′:4,5]pyrrolo[2,3-d]pyrimidin-9-yl)acetyl)-N-(6-bromopyridin-2-yl)-2-azabicyclo[3.1.0]hexane-3-carboxamide]"
7,< 100,"Cc1nc(C(F)(F)F)cc2c3c(N)ncnc3n(CC(=O)N3[C@H](C(=O)Nc4cccc(Br)n4)C[C@@]4(C)C[C@@H]34)c12 [Compound 347a, (1R,3S,5R)-2-(2-(4-amino-8-methyl-6-(trifluoromethyl)-9H-pyrido[4′,3′:4,5]pyrrolo[2,3-d]pyrimidin-9-yl)acetyl)-N-(6-bromopyridin-2-yl)-5-methyl-2-azabicyclo[3.1.0]hexane-3-carboxamide]"
8,< 100,"Cc1cc(C(F)(F)F)cc2c3c(N)ncnc3n(CC(=O)N3[C@@H]4C[C@@H]4C[C@H]3C(=O)Nc3cncc(C(F)(F)F)n3)c12 [Compound 348c, (1R,3S,5R)-2-(2-(4-amino-8-methyl-6-(trifluoromethyl)-9H-pyrimido[4,5-b]indol-9-yl)acetyl)-N-(6-(trifluoromethyl)pyrazin-2-yl)-2-azabicyclo[3.1.0]hexane-3-carboxamide]"
9,< 100,"Cc1cc(C(F)(F)F)cc2c3c(N)ncnc3n(CC(=O)N3[C@@H]4C[C@@H]4C[C@H]3C(=O)Nc3cccc(C(F)(F)F)n3)c12 [Compound 349c, (1R,3S,5R)-2-(2-(4-amino-8-methyl-6-(trifluoromethyl)-9H-pyrimido[4,5-b]indol-9-yl)acetyl)-N-(6-(trifluoromethyl)pyridin-2-yl)-2-azabicyclo[3.1.0]hexane-3-carboxamide]"
10,< 100,"Cc1nc(C(F)(F)F)cc2c3c(N)ncnc3n(CC(=O)N3[C@H](C(=O)Nc4cncc(Br)n4)C[C@@]4(C)C[C@@H]34)c12 [Compound 350a, (1R,3S,5R)-2-(2-(4-amino-8-methyl-6-(trifluoromethyl)-9H-pyrido[4′,3′:4,5]pyrrolo[2,3-d]pyrimidin-9-yl)acetyl)-N-(6-bromopyrazin-2-yl)-5-methyl-2-azabicyclo[3.1.0]hexane-3-carboxamide]"
11,< 100,"Cc1nc(C(F)(F)F)cc2c3c(N)ncnc3n(CC(=O)N3[C@H](C(=O)Nc4cccc(Cl)n4)C[C@@]4(C)C[C@@H]34)c12 [Compound 351a, (1R,3S,5R)-2-(2-(4-amino-8-methyl-6-(trifluoromethyl)-9H-pyrido[4′,3′:4,5]pyrrolo[2,3-d]pyrimidin-9-yl)acetyl)-N-(6-chloropyridin-2-yl)-5-methyl-2-azabicyclo[3.1.0]hexane-3-carboxamide]"
12,< 100,"Cc1cc(-c2ccoc2)cc2c3c(N)ncnc3n(CC(=O)N3[C@@H]4C[C@@H]4C[C@H]3C(=O)Nc3cccc(Br)n3)c12 [Compound 352c, (1R,3S,5R)-2-(2-(4-amino-6-(furan-3-yl)-8-methyl-9H-pyrimido[4,5-b]indol-9-yl)acetyl)-N-(6-bromopyridin-2-yl)-2-azabicyclo[3.1.0]hexane-3-carboxamide]"
13,< 100,"Cc1cc(-c2ccoc2)cc2c3c(N)ncnc3n(CC(=O)N3[C@H](C(=O)Nc4cccc(Br)n4)C[C@@]4(C)C[C@@H]34)c12 [Compound 353a, (1R,3S,5R)-2-(2-(4-amino-6-(furan-3-yl)-8-methyl-9H-pyrimido[4,5-b]indol-9-yl)acetyl)-N-(6-bromopyridin-2-yl)-5-methyl-2-azabicyclo[3.1.0]hexane-3-carboxamide]"
14,< 100,"Cc1cc(-c2ccnc(C(F)(F)F)c2)cc2c3c(N)ncnc3n(CC(=O)N3[C@@H]4C[C@@H]4C[C@H]3C(=O)Nc3cccc(Br)n3)c12 [Compound 354c, (1R,3S,5R)-2-(2-(4-amino-8-methyl-6-(2-(trifluoromethyl)pyridin-4-yl)-9H-pyrimido[4,5-b]indol-9-yl)acetyl)-N-(6-bromopyridin-2-yl)-2-azabicyclo[3.1.0]hexane-3-carboxamide]"
15,< 100,"Cc1cc(-c2ccnc(C(F)(F)F)c2)cc2c3c(N)ncnc3n(CC(=O)N3[C@H](C(=O)Nc4cccc(Br)n4)C[C@@]4(C)C[C@@H]34)c12 [Compound 355a, (1R,3S,5R)-2-(2-(4-amino-8-methyl-6-(2-(trifluoromethyl)pyridin-4-yl)-9H-pyrimido[4,5-b]indol-9-yl)acetyl)-N-(6-bromopyridin-2-yl)-5-methyl-2-azabicyclo[3.1.0]hexane-3-carboxamide]"
16,< 100,"Cc1cc(-c2ccc(C(F)(F)F)nc2)cc2c3c(N)ncnc3n(CC(=O)N3[C@@H]4C[C@@H]4C[C@H]3C(=O)Nc3cccc(Br)n3)c12 [Compound 356c, (1R,3S,5R)-2-(2-(4-amino-8-methyl-6-(6-(trifluoromethyl)pyridin-3-yl)-9H-pyrimido[4,5-b]indol-9-yl)acetyl)-N-(6-bromopyridin-2-yl)-2-azabicyclo[3.1.0]hexane-3-carboxamide]"
17,< 100,"Cc1cc(-c2ccc(C(F)(F)F)nc2)cc2c3c(N)ncnc3n(CC(=O)N3[C@H](C(=O)Nc4cccc(Br)n4)C[C@@]4(C)C[C@@H]34)c12 [Compound 357a, (1R,3S,5R)-2-(2-(4-amino-8-methyl-6-(6-(trifluoromethyl)pyridin-3-yl)-9H-pyrimido[4,5-b]indol-9-yl)acetyl)-N-(6-bromopyridin-2-yl)-5-methyl-2-azabicyclo[3.1.0]hexane-3-carboxamide]"
18,100 to 1000,"Cc1cc(-c2cccnc2C(F)(F)F)cc2c3c(N)ncnc3n(CC(=O)N3[C@H](C(=O)Nc4cccc(Br)n4)C[C@@]4(C)C[C@@H]34)c12 [Compound 358c, (1R,3S,5R)-2-(2-(4-amino-8-methyl-6-(2-(trifluoromethyl)pyridin-3-yl)-9H-pyrimido[4,5-b]indol-9-yl)acetyl)-N-(6-bromopyridin-2-yl)-5-methyl-2-azabicyclo[3.1.0]hexane-3-carboxamide]"
19,< 100,"Cc1cc(-c2ccco2)cc2c3c(N)ncnc3n(CC(=O)N3[C@H](C(=O)Nc4cccc(Br)n4)C[C@@]4(C)C[C@@H]34)c12 [Compound 359c, (1R,3S,5R)-2-(2-(4-amino-6-(furan-2-yl)-8-methyl-9H-pyrimido[4,5-b]indol-9-yl)acetyl)-N-(6-bromopyridin-2-yl)-5-methyl-2-azabicyclo[3.1.0]hexane-3-carboxamide]"
20,< 100,"Cc1cc(C2CC2)cc2c3c(N)ncnc3n(CC(=O)N3[C@@H]4C[C@@H]4C[C@H]3C(=O)Nc3cccc(Br)n3)c12 [Compound 360c, (1R,3S,5R)-2-(2-(4-amino-6-cyclopropyl-8-methyl-9H-pyrimido[4,5-b]indol-9-yl)acetyl)-N-(6-bromopyridin-2-yl)-2-azabicyclo[3.1.0]hexane-3-carboxamide]"
21,< 100,"Cc1cc(C2CC2)cc2c3c(N)ncnc3n(CC(=O)N3[C@H](C(=O)Nc4cccc(Br)n4)C[C@@]4(C)C[C@@H]34)c12 [Compound 361a, (1R,3S,5R)-2-(2-(4-amino-6-cyclopropyl-8-methyl-9H-pyrimido[4,5-b]indol-9-yl)acetyl)-N-(6-bromopyridin-2-yl)-5-methyl-2-azabicyclo[3.1.0]hexane-3-carboxamide]"
22,< 100,"Cc1cc(C(F)(F)F)nc2c3c(N)ncnc3n(CC(=O)N3[C@@H]4C[C@@H]4C[C@H]3C(=O)Nc3cccc(Br)n3)c12 [Compound 362f, (1R,3S,5R)-2-(2-(4-amino-8-methyl-6-(trifluoromethyl)-9H-pyrido[2′,3′:4,5]pyrrolo[2,3-d]pyrimidin-9-yl)acetyl)-N-(6-bromopyridin-2-yl)-2-azabicyclo[3.1.0]hexane-3-carboxamide]"
